Earlier results as cited in patent publication US7446116B2, “Montelukast amantadine salt” (Synthon BV, priority 2006, dated 2008).
Structures can show the parent of a compound that is named as a salt.

Key:
human patient = details: doses of at least 200 mg per day
rats = details: oral administration

| SMILES | safety for a human patient (human patient) | toxicity, expressed as LD50 value (rats) [mg/kg] |
| --- | --- | --- |
| NC12CC3CC(CC(C3)C1)C2 [amantadine hydrochloride] | safe and nontoxic |  |
| CC(C)(C)N [tert.butyl amine] |  | 44 |
